This is an account of results in article PMC4549706, “Rational Design of Highly Potent and Slow-Binding Cytochrome bc1 Inhibitor as Fungicide by Computational Substitution Optimization” (Scientific Reports, 2015).

What is called Ki is a dissociation constant, usually derived from enzyme kinetics or from competition with a known ligand. Usually melting point stands for the temperature, or range, at which the solid turns liquid.

Series [1] deals with T1, porcine succinate-cytochrome c reductase (SCR, the mixture of complex II and bc1) (Sus scrofa, UniProt P24964).
T1 construct: T h e S C R f r o m p o r c i n e h e a r t; from tissue; host or cells: porcine heart
T1 sequence (P24964 whole entry, one chain of several): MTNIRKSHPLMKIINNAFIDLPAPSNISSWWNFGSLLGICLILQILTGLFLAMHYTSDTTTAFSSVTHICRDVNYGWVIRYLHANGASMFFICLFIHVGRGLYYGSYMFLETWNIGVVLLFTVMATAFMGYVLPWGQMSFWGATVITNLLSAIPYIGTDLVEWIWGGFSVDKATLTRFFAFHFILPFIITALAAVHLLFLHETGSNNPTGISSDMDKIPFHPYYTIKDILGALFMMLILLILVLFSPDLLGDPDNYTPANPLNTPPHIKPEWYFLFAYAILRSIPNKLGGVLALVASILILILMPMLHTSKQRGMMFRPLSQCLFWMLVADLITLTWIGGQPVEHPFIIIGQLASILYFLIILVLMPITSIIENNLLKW
Put plainly: SCR activity, succinate-cytochrome c system (Assay 1). In kind it is biochemical. To be noted: for ∆∆Gexp: Table S1, experimental binding free energy change vs compound 1; for ΔΔGexp: experimental binding free energy change relative to compound 1. The procedure: (§1) Figure 4 Slow-binding inhibition mechanism. (A,B) Effect of various concentrations of cytochrome c and compound 18 on the inhibition of SCR activity. Each reaction mixture contains 100 mM, pH 7.4), EDTA (0.3 mM), succinate (20 mM), SCR (0.1 nM), and indicated amounts of cytochrome c and compound 18. The assays were performed in the presence of (A) 18 (35 nM) and a specified amount of cytochrome c (1, 4 μM; 2, 8 μM; 3, 20 μM; and 4, 48 μM) or (B) cytochrome c (60 μM) and various concentrations of compound 18 (1, 0 nM; 2, 15 nM; 3, 20 nM; 4, 30 nM; 5, 40 nM; and 6, 50 nM). Experimental data are shown as coloured dots and theoretical values are represented as black solid lines. Insets: plots of Kobs against concentration of (A) cytochrome c and (B) compound 18. […] Each reaction mixture contains 100 mM, pH 6.5), EDTA (2 mM), lauryl maltoside (750 μM), oxidised cytochrome c (100 μM), SCR (0.05 nM), and indicated amounts of DBH2 and compound 18. Two representative sets of inhibitory assays were performed in the presence of (C) DBH2 (20 μM) and a specified amount of compound 18 (1, 20 nM; 2, 40 nM; 3, 60 nM; 4, 80 nM), or (D) DBH2 (120 μM) and a specified amount of compound 18 (1, 40 nM; 2, 80 nM; 3, 120 nM; 4, 180 nM). Insets: plots of Kobs against concentration of compound 18. (E) Plot of the apparent rate constant A against concentration of DBH2. Inset: Plot of 1/A against concentration of DBH2. (F) Plot of the apparent rate constant B against concentration of DBH2.
(§2) The porcine succinate-cytochrome c reductase (SCR, the mixture of complex II and bc1) was prepared essentially according to the previously reported method. The enzymatic activities of SCR, complex II, and bc1 complex were analyzed in respective reaction mixtures as reported previously. Kinetic analyses for the inhibition mechanism were performed as previously described. […]
(§3) inhibitory kinetics study of bc1 inhibitors 8. […]
(§4) synthesized compounds against bc1 complex were examined by SCR. As previously described 9, the combined activity of SCR can be determined by using succinate and cytochrome c as substrates (Assay 1). We also measured the activity of complex II by using succinate and 2,6-dichloroindophenol (DCIP) as substrates (Assay 2), or the activity of bc1 complex by using decylubiquinol (DBH2) and cytochrome c as substrates (Assay 3). […]
redA 10, was used to represent the enzyme concentration. The three redox reactions used in this study were summarized as follows.
Assay 1: succinate + cytochrome c3+ S C R fumarate + cytochrome c2+
Assay 2: succinate + DCIP complex II fumarate + DCIPH 2
Assay 3: DBH 2 + cytochrome c3+ bc1 complex DB + cytochrome c2+
All assays were performed at 23 °C. The enzymatic activity of SCR (Assay 1) was carried out in 1.8 mL of reaction mixture containing 100 mM PBS (pH 7.4), 0.3 mM EDTA, and indicated concentrations of succinate and oxidized cytochrome c (Sigma-Aldrich). The activity of succinate-ubiquinone reductase (complex II, Assay 2) was determined in essentially the same reaction mixture, except for the replacement of cytochrome c with DCIP (Alfa Aesar). […] DBH 2 was prepared through reduction of decylubiquinone by dithionite (Sigma-Aldrich) as previously described 11,12. The nonionic detergent LM was used to decrease the interfering non-enzymatic activity though it slightly […]

Series [2] concerns Sphaerotheca fuliginea (Schlecht.) Poll. The series can be described thus: In vivo fungus growth inhibitory rate at 200 mg/L, powdery mildew. From the text: Based on the above in vitro study, compounds with nanomolar and subnanomolar Ki values were selected from the total 21 newly synthezised compounds for further studies. Pesticide likeness, defined as a complex balance of various physicochemical properties and structure features, can evaluate whether a molecule is similar to the known pesticides. After the filtration of pesticide likeness, seven compounds were kept to adhere to our previously defined rules for pesticide-likeness including molecular weight (MW) ≤ 435 Da, ClogP ≤ 6, number of H-bond acceptors (HBA) ≤ 6, number of H-bond donors (HBD) ≤ 2, number of rotatable bonds (ROB) ≤ 9, and number of aromatic bonds (ARB) ≤ 17 (Table 1)[24]. […] Therefore, compound 18 was recognized as lead compound for subsequent studies.
(§5) [a] Compounds are named as “series number-site number plus substitution group number” a: -F, b: -Cl, c:
(§6) -Br, d: -NO2, e: -CH3, f: -CF3, g: -OCH3, h: -OH, i: -NH2, j: -COOH.
(§7) [b] Substitution number and group.
(§8) [c] CH is “series 1” and N is “series 2”. […]
(§9) Table S2 Fungus growth inhibitory rate of target compounds (200 mg/L).
(§10) Comp. No. R X Sphaerotheca fuliginea Pseudoperonospora cubensis

Series [3] has as its system Pseudoperonospora cubensis (Berk. et Curt.). The series can be described thus: In vivo fungus growth inhibitory rate at 200 mg/L, downy mildew. The protocol: as §5, §6, §7, §8, §9, §10
Series [4] has as its target T2, bc1 complex (Sus scrofa, UniProt P24964).
T2 construct: T h e S C R f r o m p o r c i n e h e a r t; from tissue; host or cells: porcine heart
Put plainly: bc1 complex activity, DBH2-cytochrome c system (Assay 3). In kind it is biochemical, porcine. The protocol: Figure 3 Inhibitory kinetics of bc1 complex. (A) Chemical structures of AZ (azoxystrobin) and its analogues, compound 1 and compound 18. These compounds have a common pharmacophore structure: methoxyacrylate (MOA). […] Each reaction mixture contains phosphate buffered saline (PBS; 100 mM, pH 6.5), ethylenediaminetetraacetic acid (EDTA; 2 mM), lauryl maltoside (750 μM), oxidised cytochrome c (100 μM), SCR (0.05 nM), DBH2 (20–120 μM) and a specified amount of AZ (1, 0 nM; 2, 500 nM; 3, 1000 nM; 4, 2000 nM; 5, 3000 nM; and 6, 5000 nM). (C) Compound 1 is non-competitive with respect to cytochrome c. The reaction mixture contains 100 mM, pH 7.4), EDTA (0.3 mM), succinate (20 mM), SCR (0.1 nM), cytochrome c (1.13–15.6 μM), and a series of concentrations of compound 1 (1, 0 nM; 2, 10 nM; 3, 20 nM; 4, 40 nM; and 5, 60 nM). (D) Compound 1 is competitive with respect to DBH2. Each reaction mixture contains 100 mM, pH 6.5), EDTA (2 mM), lauryl maltoside (750 μM), oxidised cytochrome c (100 μM), SCR (0.05 nM), DBH2 (20–120 μM) and a specified amount of compound 1 (1, 0 nM; 2, 50 nM; 3, 100 nM; 4, 200 nM; 5, 300 nM; and 6, 500 nM).
as §1, §2, §3, §4
redA 10, was used to represent the enzyme concentration. The three redox reactions used in this study were summarized as follows. […]

[5] abbreviates: Table S1, inhibition constant with bc1 complex, read-out: Ki.

Structures are written as SMILES. Like-named read-outs stand apart in the source and are kept apart here.

T2 sequence (P24964 whole entry, one chain of several): as above

Turning to `CO/N=C(/C(=O)OC)c1ccccc1CSc1nc2ccc(C)cc2s1` [Compound 66], the “∆∆Gexp” value in series [1] was -2.38 kJ/mol. For the same compound, in series [1] (setting [5]), the Ki came out at 11.9 ± 1.08 nM.

As to `CO/C=C(/C(=O)OC)c1ccccc1CSc1nc2ccc(Cl)cc2s1` [Compound 23], in series [1], the inhibitory constant (Ki) was 2.75 ± 0.01 nM, the “∆∆Gexp” value was -6.02 kJ/mol and the ΔΔGexp is -6.02 kJ/mol.

With `CO/C=C(/C(=O)OC)c1ccccc1CSc1nc2ccc(Br)cc2s1` [Compound 24], in series [1], the Ki was determined as 1.15 ± 0.4 nM, the “∆∆Gexp” value was -8.2 kJ/mol and the ΔΔGexp was -8.2 kJ/mol.

`CO/C=C(/C(=O)OC)c1ccccc1CSc1nc2ccc(C)cc2s1` [Compound 26]: in series [1], the Ki was 1.15 ± 0.05 nM, the “∆∆Gexp” value is -8.2 kJ/mol and the ΔΔGexp was -8.2 kJ/mol. In addition, the “Fungus growth inhibitory rate, Sphaerotheca fuliginea” value in series [2] came to 81%. The “Fungus growth inhibitory rate, Pseudoperonospora cubensis” value in series [3] stood at 97%.

Turning to `CO/N=C(/C(=O)OC)c1ccccc1CSc1nc2cc(Cl)ccc2s1` [Compound 53], in series [1], the Ki came to 2.84 ± 0.03 nM, the “∆∆Gexp” value was -5.94 kJ/mol and the ΔΔGexp was -5.94 kJ/mol.

`CO/N=C(/C(=O)OC)c1ccccc1CSc1nc2c(F)cccc2s1` [Compound 42]: the “∆∆Gexp” value in series [1] worked out at 4.06 kJ/mol. The Ki in series [1] (setting [5]) turned out to be 160 ± 1.1 nM.

As to `CO/C=C(/C(=O)OC)c1ccccc1CSc1nc2c(F)cccc2s1` [Compound 2], the “∆∆Gexp” value in series [1] came out at 0.38 kJ/mol. Moreover, the Ki in series [1] (setting [5]) amounted to 35.9 ± 1.24 nM.

In the case of `CO/N=C(/C(=O)OC)c1ccccc1CSc1nc2cc(F)ccc2s1` [Compound 52], the “∆∆Gexp” value in series [1] was -1.17 kJ/mol. Also, the inhibition constant Ki in series [1] (setting [5]) is 19.3 ± 1.32 nM.

`CO/C=C(/C(=O)OC)c1ccccc1CSc1nc2cc(Cl)ccc2s1` [Compound 13]: in series [1], the Ki is 0.69 ± 0.06 nM, the “∆∆Gexp” value is -9.46 kJ/mol and the ΔΔGexp was -9.46 kJ/mol.

Take `CO/C=C(/C(=O)OC)c1ccccc1CSc1nc2ccc(F)cc2s1` [Compound 22]: in series [1], the inhibition constant (Ki) came to 3.97 ± 0.27 nM, the “∆∆Gexp” value is -5.1 kJ/mol and the ΔΔGexp is -5.1 kJ/mol.

For `CO/C=C(/C(=O)OC)c1ccccc1CSc1nc2c(Cl)cccc2s1` [Compound 3], the “∆∆Gexp” value in series [1] is 1.97 kJ/mol. In addition, in series [1] (setting [5]), the Ki turned out to be 68.5 ± 1.21 nM.

Turning to `CO/C=C(/C(=O)OC)c1ccccc1CSc1nc2cc(F)ccc2s1` [Compound 12], in series [1], the inhibition constant Ki is 2.15 ± 0.23 nM, the “∆∆Gexp” value is -6.61 kJ/mol and the ΔΔGexp was -6.61 kJ/mol. The “Fungus growth inhibitory rate, Sphaerotheca fuliginea” value in series [2] came to 99%. Moreover, the “Fungus growth inhibitory rate, Pseudoperonospora cubensis” value in series [3] is given as 90%.

As for `CO/N=C(/C(=O)OC)c1ccccc1CSc1nc2c(Cl)cccc2s1` [Compound 43], the “∆∆Gexp” value in series [1] was 3.22 kJ/mol. Besides, the inhibition constant Ki in series [1] (setting [5]) came to 114 ± 2.25 nM.

Regarding `CO/N=C(/C(=O)OC)c1ccccc1CSc1nc2cc([N+](=O)[O-])ccc2s1` [Compound 55], in series [1], the Ki was 1.07 ± 0.12 nM, the “∆∆Gexp” value is -8.37 kJ/mol and the ΔΔGexp was -8.37 kJ/mol.

Take `CO/C=C(/C(=O)OC)c1ccccc1CSc1nc2cc([N+](=O)[O-])ccc2s1` [Compound 15]: in series [1], the Ki was determined as 0.39 ± 0.02 nM, the “∆∆Gexp” value is -10.9 kJ/mol and the ΔΔGexp was -10.9 kJ/mol.

For the compound `CO/N=C(/C(=O)OC)c1ccccc1CSc1nc2ccc(F)cc2s1` [Compound 62], the “∆∆Gexp” value in series [1] is 2.3 kJ/mol. Moreover, the inhibitory constant (Ki) in series [1] (setting [5]) turned out to be 78.3 ± 1.37 nM.

For the compound `CO/N=C(/C(=O)OC)c1ccccc1CSc1nc2ccc(Br)cc2s1` [Compound 64], in series [1], the Ki is 3.44 ± 0.03 nM, the “∆∆Gexp” value is -5.48 kJ/mol and the ΔΔGexp was -5.48 kJ/mol.

With `CO/C=C(/C(=O)OC)c1ccccc1CSc1nc2ccc(C(F)(F)F)cc2s1` [Compound 27], in series [1], the Ki came to 0.81 ± 0.03 nM, the “∆∆Gexp” value was -9.04 kJ/mol and the ΔΔGexp is -9.04 kJ/mol.

For `CO/N=C(/C(=O)OC)c1ccccc1CSc1nc2ccc([N+](=O)[O-])cc2s1` [Compound 65], the “∆∆Gexp” value in series [1] was -0.33 kJ/mol. Moreover, the inhibition constant (Ki) in series [1] (setting [5]) was found to be 27.3 ± 1.27 nM.

For `CO/N=C(/C(=O)OC)c1ccccc1CSc1nc2ccc(Cl)cc2s1` [Compound 63], the “∆∆Gexp” value in series [1] was -2.97 kJ/mol. The Ki in series [1] (setting [5]) is 9.37 ± 1.24 nM.

The compound `CO/C=C(/C(=O)OC)c1ccccc1CSc1nc2ccccc2s1` [Compound 1, E-Methyl 2-(2-((benzo-thiazol-2-ylthio)methyl)phenyl)-3-methoxyacrylate] had a melting point of 84 to 86 °C. Moreover, in series [1], the Ki came to 31.1 ± 0.9 nM, the “∆∆Gexp” value turned out to be 0 kJ/mol and the ΔΔGexp was determined as 0 kJ/mol. In addition, the “inhibition type with respect to cytochrome c” value in series [1] (Assay 1, varied cytochrome c) is recorded as “non-competitive”. In addition, the Ki in series [4] was found to be 96.5 ± 5.6 nM. The “inhibition type with respect to DBH2” value in series [4] (Assay 3, varied DBH2) is reported as “competitive”. In addition, the “Ki in DBH2-cytochrome c system relative to Ki in succinate-cytochrome c system” value in series [4] (Assay 3 vs Assay 1) was “approximately 3 fold”.
